ChEMBL document CHEMBL1149975, “Synthesis of C2-symmetrical polyhydroxyazepanes as inhibitors of glycosidases” (Bioorg Med Chem Lett, 1996)

Assays:
[1] = system: Canavalia ensiformis; experiment: Compound was tested for % inhibition of alpha-mannosidase from jack beans.; details: concentration not given here
[2] = system: Canavalia ensiformis; experiment: Compound was tested for % inhibition of beta-N-acetylglucosaminidase from jack beans.; details: concentration not given here
[3] = molecular target: T1, Beta-galactosidase (Aspergillus niger, UniProt P29853); experiment: Compound was tested for inhibition of beta-galactosidase from aspergillus niger; NI means no inhibition.
T1 sequence (P29853 whole entry): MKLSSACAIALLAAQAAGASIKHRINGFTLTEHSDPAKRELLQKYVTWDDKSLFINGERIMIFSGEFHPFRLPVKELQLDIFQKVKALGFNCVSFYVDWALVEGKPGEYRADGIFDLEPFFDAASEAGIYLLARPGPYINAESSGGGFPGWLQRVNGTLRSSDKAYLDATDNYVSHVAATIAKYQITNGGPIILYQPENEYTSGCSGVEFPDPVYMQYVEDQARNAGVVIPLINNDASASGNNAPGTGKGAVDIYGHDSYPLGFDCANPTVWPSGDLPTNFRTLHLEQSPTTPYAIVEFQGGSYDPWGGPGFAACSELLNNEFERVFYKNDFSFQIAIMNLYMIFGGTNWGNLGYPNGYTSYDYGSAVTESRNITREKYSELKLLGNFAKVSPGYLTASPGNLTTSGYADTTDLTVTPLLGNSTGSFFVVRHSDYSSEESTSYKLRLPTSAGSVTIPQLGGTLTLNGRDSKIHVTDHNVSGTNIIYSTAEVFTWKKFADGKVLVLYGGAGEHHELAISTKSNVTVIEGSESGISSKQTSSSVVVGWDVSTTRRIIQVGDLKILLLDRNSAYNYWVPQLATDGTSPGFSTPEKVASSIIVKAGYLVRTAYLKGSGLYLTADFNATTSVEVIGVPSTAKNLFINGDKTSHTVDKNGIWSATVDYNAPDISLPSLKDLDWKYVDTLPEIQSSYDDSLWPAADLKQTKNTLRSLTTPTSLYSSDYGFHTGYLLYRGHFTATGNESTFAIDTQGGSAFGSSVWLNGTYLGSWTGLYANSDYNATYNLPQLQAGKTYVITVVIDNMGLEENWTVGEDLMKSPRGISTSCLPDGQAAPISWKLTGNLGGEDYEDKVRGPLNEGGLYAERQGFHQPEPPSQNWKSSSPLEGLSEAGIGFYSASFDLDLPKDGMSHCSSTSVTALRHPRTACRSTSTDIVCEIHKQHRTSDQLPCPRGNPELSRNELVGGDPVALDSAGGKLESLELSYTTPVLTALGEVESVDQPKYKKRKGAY

[4] = system: Alpha-glucosidase (Saccharomyces cerevisiae); experiment: Compound was tested for % inhibition of alpha-glucosidase from yeast.; details: concentration not given here
[5] = system: beta-glucosidase (Prunus dulcis); experiment: Compound was tested for % inhibition of beta-glucosidase from sweet almonds.; details: concentration not given here
[6] = system: alpha-galactosidase (Coffea arabica); experiment: Compound was tested for inhibition of alpha-galactosidase from green coffee beans; NI means no inhibition.
[7] = Compound was tested for inhibition of alpha-mannosidase from jack beans; NI means no inhibition.; parameters: species or system Canavalia ensiformis
[8] = Compound was tested for inhibition of beta-N-acetylglucosaminidase from jack beans.; parameters: species or system Canavalia ensiformis
[9] = molecular target: T1, Beta-galactosidase; experiment: Compound was tested for inhibition of beta-galactosidase from aspergillus niger.
[10] = Compound was tested for inhibition of alpha-mannosidase from jack beans.; parameters: species or system Canavalia ensiformis

| inhibition [1] [%] | inhibition [2] [%] | Ki [3] | inhibition [4] [%] | inhibition [5] [%] | Ki [6] | Ki [7] | Ki [8] [µM] | Ki [9] [µM] | Ki [10] [µM] | Compound |
| --- | --- | --- | --- | --- | --- | --- | --- | --- | --- | --- |
| 11 | 6 | No inhibition | 6 | 14 | No inhibition | – | – | – | – | O[C@H]1[C@H](O)[C@H](O)CN(Cc2ccccc2)C[C@H]1O |
| – | – | No inhibition | – | – | – | No inhibition | 4.6 | – | – | O[C@H]1[C@H](O)[C@H](O)CNC[C@H]1O |
| – | – | – | – | – | – | – | 22.7 | 6.5 | 25.7 | O[C@H]1[C@H](O)[C@@H](O)CNC[C@@H]1O |
